Assay results published in patent US20240425555A1, “MUTANT BRD4 POLYPEPTIDES AND METHODS OF USE THEREOF” (Northwestern University, priority 2023, published 2024).
Each block holds one compound with its values, some of them ahead of it.

Key:
[1] = system: Pol II pausing; experiment: total Pol II ChIP-seq upon auxin, JQ1, dBET6 or NVP-2 treatment; format: cell-based, human; conditions: for Pol II pausing (Pol II occupancy profile): auxin 500 uM, JQ1 1 uM, dBET6 250 nM, 3 h
Description: FIG. 1A illustrates the updated BRD4-IAA7 degron line. The F-box protein AtAFB2 was integrated into the C terminus of the BRD4 locus under the control of an independent promoter. […] These treatment concentrations/durations are relevant to all of FIG. 1. […] The gene list (N=6481) in this analysis is used throughout the study (except for FIGS. 3H-J). FIG. 1D illustrates the estimated Cumulative Density Function (ECDF) of pause release ratios (PRR, reported as log 2 fold change) for auxin treatment vs untreated control. The PRR is the ratio of Pol II occupancy within gene bodies to its occupancy at promoters. A leftward shift of the curve indicates an increase in the frequency and/or duration of promoter-proximal pausing, while a rightward shift indicates reduced pausing and/or more efficient release into gene bodies.
FIGS. 8A-8E. collectively illustrate the differences in Pol II pausing induced by BRD4 depletion and bromodomain inhibition, related to FIG. 1. FIG. 8A illustrates the western blot showing the expression of HA-tagged AtAFB2 and the auxin-induced degradation of V5-tagged BRD4 using anti-tag antibodies. FIG. 8B illustrates the western blot comparing the BRD4 protein expression level and degradation kinetics of the previously published BRD4-AID degron to those of the BRD4-IAA7 degron used in this study 12. Note: in FIGS. 8A and 8B, the BRD4-IAA7 clone used is D4 (Hygromycin selected); it is G3 (Neomycin selected) otherwise in the study. […] FIG. 8E illustrates the track examples of Pol II ChIP-seq signal at the HSPA8 and GAPDH loci upon NVP-2 treatment (2 h) and corresponding heatmaps showing Pol II occupancy profiles and fold change in occupancy vs control upon NVP-2 treatment.
To specifically deplete BRD4 without affecting other BET proteins, we generated an updated BRD4 degron line by modifying the published miniIAA7 degron system (hereafter BRD4-IAA7) to reduce basal degradation seen with AID degron-tagged BRD4^30 (FIGS. 1A and 8A).
DLD1 cells were crosslinked with 15 ml 1% PFA (ThermoFisher, #28908) in PBS on 15 cm plates for 10 minutes at RT and quenched by the addition of 2 ml 2.5M glycine followed by shaking for 5 minutes. Crosslinked cells were collected by scraping. Chromatin sonication was performed for 10 minutes using a Covaris E200 set to 10% duty factor, 200 cycles per burst, and 140 peak intensity power. For endogenous protein ChIP, 10-20% of mouse embryonic fibroblasts (MEF) chromatin (prepared the same way as in DLD1 cells) was added to each sample as a spike-in control. For overexpressed protein ChIP, such as GFP-ChIP, 20 ng spike-in chromatin (Active Motif, #53083) and 2 ug spike-in antibody (Active Motif, #61686) were added to each sample. Immunoprecipitation was carried out at 4° C. overnight using 5ul of Rpb1 (Cell Signaling Technology, #D8L4Y), 5ul of Ser2p (Active Motif, #61984), 10ul of CCNT1 (Cell Signaling Technology, #81464), 10ul of CDK9 (Santa Cruz Biotechnology, #sc-13130 X) antibodies, or 200ul of a cocktail consisting of 50ul of each GFP antibody (DSHB, #GFP-G1, #GFP-12A6, #GFP-12E6, #GFP-8H11). Immune complexes were enriched with Protein G-coupled Dynabeads (Invitrogen, #10004D) at 4° C. for >=4 h, and incubated with proteinase K (Roche, #3115828001) to reverse crosslink at 65° C. overnight. Eluted DNA was purified with the QIAquick PCR Purification Kit (Qiagen, #28106), and libraries were prepared using the KAPA HTP library preparation kit (Roche, #07961901001) for sequencing on the NovaSeq 6000.
Reads were aligned to hg38 with bowtie 1/250. Genes (N=6,481) with pausing site and TES annotation were obtained from a previously published study51. Promoter regions were designated as spanning from 100 bp upstream to 300 bp downstream of the pausing site. Gene body regions were designated as spanning from 300 bp downstream of the pausing site to the TES. FeatureCounts 2.0.152 was used to calculate the total mapped reads from Pol II ChIP-seq at promoters and within gene bodies. […]

[2] = molecular target: BRD4 (UniProt O60885+Q38825); experiment: Western blot of BRD4 degradation in BRD4-IAA7 degron line; format: cell-based, human; conditions: BRD4-IAA7 DLD1 degron line; auxin 500 uM 2 or 3 h; JQ1 1 uM or dBET6 250 nM 3 h
[3] = system: Ser2P; experiment: Ser2P ChIP-seq upon JQ1 or dBET6 treatment; format: cell-based, human; conditions: BRD4-IAA7 cells; series concentration of JQ1 or 250 nM dBET6, 3 h
Description: FIGS. 5A-5J collectively illustrate the identification of a distinct BRD4-PTEFb population, which is active but not histone acetylation-bound. FIG. 5A illustrates the track examples for AID ChIP-seq in the BRD4-AID line and CCNT1 ChIP-seq in the BRD4-IAA7 line with/without auxin treatment (3 h). H3K27ac ChIP-seq signal in the BRD4-AID line is shown for comparison. FIG. 5B illustrates the heatmap showing the genome-wide BRD4 and CCNT1 occupancy profile and the corresponding fold change upon auxin treatment for the conditions in A. Genes ranked by BRD4 signal in control. FIG. 5C illustrates the scatter plot showing the relative promoter density of CCNT1 vs BRD4, calculated by the log 2RPKM of the ChIP-seq signals at the regions flanking (±1 Kb) the Pol II pausing sites. FIG. 5D illustrates the track examples for GFP ChIP-seq signal upon induction of GFP-tagged BRD4-FL or the indicated mutants (left). Heatmap showing the genome-wide fold changes of the GFP-tagged BRD4 mutants relative to the vector (right). The endogenous BRD4 was depleted by auxin treatment (3 h) in all samples. Genes are ranked by GFP signal in the GFP-BRD4-FL condition. FIG. 5E illustrates the track examples for CCNT1 ChIP-seq signal upon endogenous BRD4 depletion and rescue with indicated GFP-tagged mutants (left). Heatmap showing the genome-wide CCNT1 fold changes (right). […]

[4] = system: Pol II pausing; conditions: reference 21; cited from earlier work
[5] = molecular target: T1, BRDT (Homo sapiens, UniProt Q58F21); experiment: Western blot of dBET6 treatment in NCIH2009 cells (BRDT); format: cell-based; conditions: dBET6 3 h
T1 construct: endogenous in cells; host or cells: NCIH2009
Description: FLAG antibody (#F1804) was obtained from Millipore Sigma. […] H3 antibody was generated in-house.

[6] = molecular target: T2, PTEFb (Homo sapiens, UniProt O60563+P50750); experiment: GFP IP-MS and GFP IP western blot of GFP-tagged BRD4 constructs; format: binding; conditions: GFP-tagged; for binding to PTEFb (western blot for GFP IP): Dox 2 days
[7] = molecular target: T2, PTEFb; experiment: BRD4 IP / GFP IP competition for PTEFb by C46 or p46; format: binding; design: endogenous in cells; lysate of unnamed cells for the p46 addition
Description: FIGS. 14A-14G. Identification of essential PTEFb binding sites in BRD4's C-terminus. FIG. 14A. Schematic showing the constructs of Dox inducible GFP-tagged BRD4 C terminus mutants with residue length indicated. Western blot of GFP IP for these two mutants upon Dox induction for 2 days showing both mutants can interact with PTEFb. FIG. 14B. […] Auxin treatment serves as a positive control for the loss of endogenous BRD4. FIG. 14C. […] FIG. 14D. […] FIG. 14E. Schematic showing the sequence alignment of the 46 residues in the C terminus of BRD4 and BRDT as well as the alanine scanning strategy to mutate each site for 3 amino acids at one time. FIG. 14F. Comparison of the ability to pull down PTEFb by Bio-p46/Bio-p46* and Biotin-labeled BRDT C terminus 46 residues (Bio-pT46) as well as Biotin-labeled BRD4 C terminus 46 residues with each of the sites mutated to AAA as shown in E (Bio-p1 to p7). FIG. 14G. Western blot of GFP IP showing the amount of PTEFb binding to GFP-tagged BRD4 C terminus fragment of 340 residues (WT) and its mutants with each of the sites mutated to AAA as indicated in E (A-H).
FIGS. 15A-15E. FIG. 15A. Spectral counts for BRD4, CCNT1, and CDK9 from the GFP IP for the GFP-tagged BRD4 C terminus fragment of 340 residues (C) and 46 residues (C46) followed by mass spectrometry. […] Quantitative curves of PTEFb signal intensity from western blot in D against increasing concentration of p46. […]

[8] = molecular target: T2, PTEFb; experiment: Peptide titration: p46 competition in Bio-p46 pull down assay; format: binding; design: endogenous in cells
Description: FIGS. 15A-15E. FIG. 15A. Spectral counts for BRD4, CCNT1, and CDK9 from the GFP IP for the GFP-tagged BRD4 C terminus fragment of 340 residues (C) and 46 residues (C46) followed by mass spectrometry. FIG. 15B. Western blot validation for the mass spectrometry using the remaining GFP IP samples from one of the replicates. FIG. 15C. […] FIG. 15D. […] FIG. 15E. Quantitative curves of PTEFb signal intensity from western blot in D against increasing concentration of p46.
To pull down PTEFb by Biotin-labeled peptide, cells were lysed with Triton X-100 lysis buffer as used for GFP IP. Biotin-labeled peptides were pre-incubated with streptavidin beads at room temperature for 30 min. Conjugated beads were then washed with lysis buffer twice before adding to the cell lysate. Pulldown was carried out at 4° C. by rotating for >=4 h, followed by 5 times wash with lysis buffer. To elute, 4× Laemmli sample buffer was added and boiled for 10 min. For the peptide titration experiment, a series of concentration of p46 was pre-incubated with same amount of cell lysate for 1 h at 4° C. Same amount of Bio-p46 conjugated streptavidin beads were used to pull down PTEFb for >=4 h. PTEFb signal intensity from western blot was determined by Image Lab from Bio-Rad.

T2 sequence (P50750 whole entry): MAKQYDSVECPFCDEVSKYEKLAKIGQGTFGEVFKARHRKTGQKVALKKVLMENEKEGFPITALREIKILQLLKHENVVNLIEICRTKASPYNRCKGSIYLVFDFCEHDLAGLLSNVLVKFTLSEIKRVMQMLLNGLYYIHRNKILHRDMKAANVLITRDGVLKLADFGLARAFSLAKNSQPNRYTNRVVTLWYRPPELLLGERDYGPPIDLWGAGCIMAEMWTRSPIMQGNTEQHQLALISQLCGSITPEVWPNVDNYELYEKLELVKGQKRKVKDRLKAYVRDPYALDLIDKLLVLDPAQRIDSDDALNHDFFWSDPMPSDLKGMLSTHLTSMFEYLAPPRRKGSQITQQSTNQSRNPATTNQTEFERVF
T2 sequence (O60563 whole entry): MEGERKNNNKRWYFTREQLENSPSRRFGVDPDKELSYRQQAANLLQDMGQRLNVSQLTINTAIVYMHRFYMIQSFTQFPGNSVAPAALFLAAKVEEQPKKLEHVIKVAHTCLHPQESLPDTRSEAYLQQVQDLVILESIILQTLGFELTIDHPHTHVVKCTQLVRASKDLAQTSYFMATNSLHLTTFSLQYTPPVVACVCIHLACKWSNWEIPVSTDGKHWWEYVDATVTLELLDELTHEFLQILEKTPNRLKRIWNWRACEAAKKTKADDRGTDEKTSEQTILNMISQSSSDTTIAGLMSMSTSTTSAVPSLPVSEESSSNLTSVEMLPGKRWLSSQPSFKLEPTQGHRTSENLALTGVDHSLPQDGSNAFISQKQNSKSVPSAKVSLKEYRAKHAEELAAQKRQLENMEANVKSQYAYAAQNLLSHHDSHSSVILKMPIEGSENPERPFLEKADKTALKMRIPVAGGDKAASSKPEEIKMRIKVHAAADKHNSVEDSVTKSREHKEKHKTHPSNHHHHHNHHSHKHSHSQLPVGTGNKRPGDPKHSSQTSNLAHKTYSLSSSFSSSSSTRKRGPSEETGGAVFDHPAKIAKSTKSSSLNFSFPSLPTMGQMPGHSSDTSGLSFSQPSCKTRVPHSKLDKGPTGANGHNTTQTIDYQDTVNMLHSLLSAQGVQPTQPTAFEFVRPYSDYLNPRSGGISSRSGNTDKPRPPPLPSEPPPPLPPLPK

Compound: O=C(O)Cc1c[nH]c2ccccc12 [auxin]
- Pol II pausing (Pol II occupancy profile) ([1]; BRD4-IAA7 cells): inducing pausing at the majority of Pol II-transcribed genes
- BRD4 degradation (western blot) [2]: rapidly degraded

Compound: C46: BRD4 C terminus 46aa (SEQ ID NO: 1) expressed in cells with a GFP tag
- interaction with PTEFb (GFP IP-MS) ([6]; Dox 50 nM 2 days): does not impair its interaction with PTEFb
- binding to PTEFb (western blot for GFP IP) [6]: bind to PTEFb strongly
- competition with endogenous BRD4 for PTEFb (endogenous BRD4 IP) ([7]; C46 expressed in BRD4-V5-IAA7 degron line): competes with the endogenous BRD4 for PTEFb

Compound: NVP2
- Pol II pausing genome-wide upon CDK9 inhibition ([1]; DLD1 cells, NVP-2 treatment 2 h): induced strong Pol II pausing genome-wide

Now from value to compound, other results behind:

- degradation of endogenous BRDT [5]: degraded
Compound: Cc1sc2c(c1C)C(c1ccc(Cl)cc1)=N[C@@H](CC(=O)NCCCCCCCCNC(=O)COc1cccc3c1C(=O)N(C1CCC(=O)NC1=O)C3=O)c1nnc(C)n1-2 (stereo partly drawn) [dBET6]
- Ser2P ChIP-seq signals [3]: Ser2P signal fade away
- Pol II pausing (Pol II occupancy profile) ([1]; BRD4-IAA7 cells): inducing pausing at the majority of Pol II-transcribed genes
- gene-by-gene log 2PRR correlation with auxin treatment ([1]; BRD4-IAA7 cells, scatter plot): much stronger
- effect on Pol II pausing (RNA-seq, NET-seq) [4]: dramatic, genome-wide increase in paused Pol II at promoters

- binding to PTEFb (western blot for GFP IP) [6]: bind to PTEFb strongly
Compound: C85: BRD4 C terminus 85aa expressed in cells with a GFP tag

- binding of PTEFb to Bio-p46 ([8]; cell lysate pre-incubated with increasing concentration of p46): decreased binding of PTEFb
- "IC50" ([8]; competition between free and biotin-labelled peptides, in vitro): hundred nanomole level
- amount of PTEFb bound to endogenous BRD4 or overexpressed GFP-tagged C46 ([7]; p46 added to cell lysate prior to IP): significantly decreased
Compound: p46: synthetic peptide of the BRD4 C terminus 46 residues
